{"source": "patent US20090093538A1", "about": "“Method for treating cancer” (priority 2007, published 2009)", "key": {"[1]": {"tested_on": "human breast tumor MDA-MB-435", "settings": "Paclitaxel 5 mg/kg + Compound 1 25 or 50 mg/kg, IV, 3 times a week for 3 weeks, nude mice", "procedure": "The in vivo anti-cancer enhancing effect of novel compounds was assessed in tumor bearing mice using the tumor growth inhibition assay. Tumor cells were implanted by injection of a tumor cell suspension subcutaneously in the flank of a mouse. […] Tumors were measured two times a week. During the course of this assay, animals were monitored daily for signs of toxicity including body weight loss."}, "HSB2 cells": {"tested_on": "HSB2 cells", "test": "Apoptosis, Annexin V / propidium iodide FACS", "type": "cell-based", "procedure": "To confirm that the ability of NAC to block Compound 1-induced cell death was not cell-line specific, we examined the role of oxidative stress in two additional cell lines by FAC analysis. RAMOS and HSB2 cells (ATCC) were seeded in 6-well plates at 1×10^6 cells/well/4 mL and incubated at 37° C. for 4 hours. […] After incubation the cells were stained with Annexin V and propidium iodide (Vybrant Apoptosis assay kit, Cat# V13241, Invitrogen, Molecular Probes) for measuring apoptotic cells by FACS analysis.\nThe cells were harvested and stained with Annexin V and propidium iodide for measuring apoptotic cells by FACS analysis."}, "Hsp70 [2]": {"tested_on": "Hsp70", "test": "Hsp70 induction in tumor and non-tumor cells (Western blot)", "type": "cell-based, human", "settings": "0.5 μM, 15 hours; MDA-MB-435 vs HMEC and HRE cells", "procedure": "MDA-MB-435, human mammary epithelial (HMEC) […] (see Ross et al., “Systematic variation in gene expression patterns in human cancer cell lines,” Nat. Genet. (2000). 24(3):227-3.), and human renal epithelial (HRE) cells were seeded in 100 mm tissue culture plates at 1.5×10^6 cells/plate and incubated at 37° C. with 5% CO2 for several hours. […] After treatment the cells were lysized and used for Western blot analysis.\nSamples were run on a SDS-PAGE gel and proteins were transferred onto a nitrocellulose membrane. Nitrocellulose was blocked with 5% skim milk in TBS with 0.5% Tween at room temperature for 1 hour and then probed with anti-Hsp70 (mouse IgG, sc-24, Santa Cruz) antibody. The nitrocellulose was then probed with secondary antibodies, HRP-conjugated goat anti-rabbit IgG and HRP-conjugated horse anti-mouse IgG (#7074, #7076, Cell Signaling). LumiGLO reagent, 20× Peroxide (#7003, Cell Signaling) was used to visualize gel (see FIG. 25)."}, "Ramos cells": {"tested_on": "Ramos cells", "test": "ROS generation, carboxy-H2DCFDA probe, flow cytometry", "type": "cell-based", "procedure": "In these experiments, we monitored the production of ROS using the cell permeable Carboxy-H2DCFDA probe. When this probe is oxidized by ROS, it emits a green fluorescence that can be detected using flow cytometry or fluorescent microscopy. […] 25 μM carboxy-H2DCFDA (Invitrogen. C400) working solution was added to cover the cells, and the cells were incubate for 30 minutes at 37° C., protected from light. The cells were gently washed three times in warm HBSS/Ca/Mg. ROS levels, as determined by fluorescence intensity, were determined by flow cytometry (excitation at 495 nm, emission at 529 nm).\nTiron is a direct scavenger of ROS and is a potent inhibitor of oxidative stress.\nRamos cells were treated with elesclomol (500 nM) for the indicated times then washed gently once with warm HBSS/Ca/Mg (Invitrogen Carlsbad, Calif. Cat# 14025). 25 μM carboxy-H2DCFDA (Invitrogen Cat #C400) working solution was added to cover the cells and they were incubated for 30 minutes at 37° C., protected from light. The cells were gently washed three times in warm HBSS/Ca/Mg. ROS levels (fluorescence intensity) were determined by flow cytometry (excitation at 495 nm, emission at 529 nm) using a Becton Dickinson FACSCalibur equipped with CellQuest Pro software. Data is plotted as percent of elesclomol-treated cells with DCFDA fluorescence relative to DMSO (control) treated cells (see FIG. 49)."}, "Hsp70 [3]": {"tested_on": "Hsp70", "test": "Hsp70 RNA induction, quantitative PCR, Hs294T cells", "type": "cell-based, human", "settings": "100 nM", "procedure": "[…] 500 ng of RNA from each sample was used for cDNA synthesis using iScript cDNA Synthesis Kit (Biorad, Cat# 170-8891). 1 uL of cDNA mixture was used with the iQ SYBR Green Supermix (Biorad, Cat# 170-8882) to perform quantitative PCR in an iCycler machine (Biorad) using standard protocols. QPCR for each sample/time point was performed in duplicate. The following primers for inducible human Hsp70 and gapdh were used:\nCt values were obtained from the iCycler program and used in an equation (2^−ΔΔCT) for determining the amount of target relative to gapdh expression. This compares the relative expression of Hsp70 to the corresponding levels of gapdh in each sample. Duplicate wells were averaged and graphed with their corresponding standard deviation.\nActivation of HSF-1 by oxidative stress has been reported in the literature to require p38 kinase signaling in some cell lines."}, "MDA-MB-435 cells": {"tested_on": "MDA-MB-435 cells", "test": "Lysis of target cells by mouse splenocytes (MTS assay)", "type": "cell-based, human", "settings": "0.1 or 0.5 μM, about 15 hours, splenocytes 10:1, 24 hours", "procedure": "(§1) MDA-MB-435 cells were purchased from American Type culture collection. Human mammary epithelial (HMEC), human renal epithelial (HRE) cells and medium for maintaining the cells were obtained from Cambrex Bioproducts. Mouse splenocytes were isolated form CD1 nude mice (Jackson Lab). […] Mouse splenocytes were isolated from Nude mice and mixed with MDA-MB-435, HMEC and HRE cells at ratio of 10:1. The mixed cells were incubated at 37° C. for 24 hours in the tissue culture medium and MTS assay was performed to measure viability of the cells with an ELISA reader (DYNEX Technologies). Cytotoxicity (C) was calculated based on an equation below: C=[1-([…])]×100%"}, "HMEC and HRE cells": {"tested_on": "HMEC and HRE cells", "test": "Lysis of target cells by mouse splenocytes (MTS assay)", "type": "cell-based, human", "settings": "non-cancerous HMEC and HRE cells; 0.1 or 0.5 μM, about 15 hours; splenocytes 10:1, 24 hours", "procedure": "as §1"}, "[4]": {"settings": "Compound 1 0.2 μM plus NAC 5 mM, 20 hours"}, "[5]": {"settings": "Compound 1 0.2 μM, 20 hours (FIG. 39D)"}}, "data": [{"smiles": "CN(NC(=O)CC(=O)NN(C)C(=S)c1ccccc1)C(=S)c1ccccc1", "note": "[Compound 1]", "values": [{"measurement": "anti-tumor activity (tumor volume)", "setting": "[1]", "result": "significantly enhanced anti-tumor activity of paclitaxel"}, {"measurement": "early apoptotic cells", "setting": "HSB2 cells; 200 nM Compound 1, 24 hours (DMSO 12%)", "result": 45, "unit": "%"}, {"measurement": "cells in early stages of apoptosis", "setting": "HSB2 cells; [4]", "result": 2.9, "unit": "%"}, {"measurement": "cells in late stages of apoptosis", "setting": "HSB2 cells; [4]", "result": 3.8, "unit": "%"}, {"measurement": "early apoptotic cells", "setting": "HSB2 cells; Compound 1 0.2 μM plus NAC 5 mM, 24 hours", "result": 6, "unit": "%"}, {"measurement": "cells in early stages of apoptosis", "setting": "HSB2 cells; [5]", "result": 26.6, "unit": "%"}, {"measurement": "cells in late stage apoptosis", "setting": "HSB2 cells; [5]", "result": 41.5, "unit": "%"}, {"measurement": "induction of Hsp70", "setting": "Hsp70 [2]", "result": "preferentially induces Hsp70 in MDA-MB-435 tumor cells compared to non-tumor HMEC, and HRE cells"}, {"measurement": "generation of ROS", "setting": "Ramos cells; 0.5 μM, 24 hours", "result": "induced the generation of ROS"}, {"measurement": "earliest time at which induction of ROS was observed", "setting": "Ramos cells; Ramos cells, time course", "result": 3, "unit": "h"}, {"measurement": "Hsp70 RNA expression induction", "setting": "Hsp70 [3]; 3 hours", "result": 3.9, "unit": "fold"}, {"measurement": "Hsp70 RNA expression induction", "setting": "Hsp70 [3]; 6 hours", "result": 8.3, "unit": "fold"}, {"measurement": "increase in lysis compared to cells treated with DMSO alone", "setting": "MDA-MB-435 cells", "result": "about 15%"}, {"measurement": "increase in lysis compared to cells treated with DMSO alone", "setting": "HMEC and HRE cells", "result": "only slightly increased"}]}]}
